Measurements from patent US20180265867A1, “NUCLEIC ACID MOLECULES WITH ENHANCED ACTIVITY” (priority 2015, published 2018).
{Cy3} = Cy3 fluorescent dye label; d = 2'-deoxy (DNA); r = 2'-OH (RNA)

What was measured:
[1] = system: MG63 cells; conditions: no own experiment described; cited from earlier work
[2] = Thermal denaturation (Tm) of siRNA duplexes; type: physicochemical
Experimental: Thermal denaturation studies of siRNA was carried out in phosphate buffer, pH 7.0, containing 140 mM KCl. UV absorbance was monitored at 260 nm in the temperature range from 40 to 95° C. using a Lambda 35 UV-Vis spectrophotometer equipped with a Peltier temperature programmer with a heating rate of 0.5° C./min. Samples (1 μM RNA) were denatured at 90° C. for 3 min followed by slow cooling to 27° C. prior to the measurements. Tm values were obtained from the maxima of the first derivatives of the melting curves. All Tm values given are the averages of three independent sets of experiments (±0.3° C. error range).

[3] = system: GAPDH; test: GAPDH gene knockdown in MG63 cells by RT-PCR; type: cell-based, human; conditions: MG63 cells, carrier-free transfection, 50 nM, 24 h
Experimental: At 70% confluency, a day prior to transfection, the cells were seeded at a density of 35 000 cells in a 24-well cell culture plate to achieve 60-80% confluence at the day of transfection. Cell penetrating siRNAs (cpRNAs) of different lengths were transfected at 50 nM concentrations with Magnet Assisted Transfection (MATra-si) reagent for siRNAs (IBA GmbH, Göttingen, Germany) according to the manufacturers' protocols. Briefly, the siRNA was mixed with MATra-si reagent composed of supermagnetic ironoxide nanoparticles and incubated for 20 min. A complex was formed which was added to the cells to be transfected. A strong magnetic force was applied beneath the cells for 15 min. This forced the complex to be drawn into the cells by the magnetic field, and as a result the siRNA was delivered directly into the cytosol. For carrier free transfection experiments, cpRNAs were simply added to cells lines MG63, HOB, HCT116, fibroblasts and keratinocytes at 50 nM concentrations. Cells were also transfected with negative control siRNA (scrambled sequence) and cells left untreated were taken as controls. Each transfection was performed in triplicate. Post transfection, cells were incubated for 24 hours.
For the experiments involving lysosomotropic agent chloroquine (CQ), CQ was first neutralized to pH 7.4 using 1 M NaOH prior to use. MG63 cells were transfected with dT2, dT5, dT8, (dT5)2, as(dT5), and bl(dT5) siRNA in presence or absence of 100 μM CQ or using MATra-si and incubated for 24 h. Similar experiments were performed for other cpRNAs namely, dA5, dT5, dG5, (dT5)2, rA5 and dC5. For the control experiment, cells were either left untreated or transfected with negative control siRNA (scrambled sequence). Each transfection experiment was performed in triplicate.
After performing transfection experiments for 24 h, 48 h and 72 h respectively, total RNA was isolated from cells by adding 500 μl of lysis buffer (Qiagen, Germany), followed by homogenization of cell lysates using QIAshredder (Qiagen, Germany). RNA was extracted from cell lysates by RNeasy Mini Kit (Qiagen, Germany). All RNA samples were treated with DNase using TURBO-DNAfree (Ambion, USA). Agilent 2100 BioAnalyzer (Agilent Technologies, Palo Alto, Calif.) was used to confirm high quality of all RNA samples, which reports an RNA Integrity Number (RIN) that takes into account the entire electrophoretic RNA trace produced in the analysis. A RIN of greater than or equal to seven indicates the RNA is suitable for high stringency applications.
cDNA synthesis was performed in triplicate using total RNA reverse transcribed using High Capacity cDNA reverse transcription kit (Applied Biosystems, USA), with non-template control added to ensure a lack of signal in assay background. Reactions were incubated on a 96-well Applied Biosystems 9800 Fast Thermal Cycler PCR System at 37° C. for 60 min followed by 95° C. for 5 min. The real-time PCR reactions were carried out with 10 μl of 2×TaqMan® Universal PCR Master Mix, no AmpErase® UNG (Applied Biosystems, USA), 9 μl diluted cDNA, and 1 μl of TaqMan gene specific assay mix in a 20 μl final reaction volume. Reference gene beta-actin (ACTB) (Applied Biosystems, USA) was selected as control for normalization of TaqMan data. The assay included a no-template control, a standard curve of five serial dilution points (in steps of 3-fold) of cDNA mixture. Probes specific for IFN-α (Hs01022060_m1), IFN-β (Hs01077958_s1), IFN-γ (Hs00985251_m1), ACTB(Hs01060665_g1) and GAPDH (Hs02758991_g1) were purchased from Applied Biosystems. The amplification was carried out using the 7500 Fast Real-Time PCR System (Applied Biosystems, USA) using a 40-cycle program. The 7500 software automatically calculates raw Ct (cycle threshold) values. Data from samples with a Ct value equal to or below 35 were further analyzed. […]

[4] = system: MG63 and HOB cells; test: Cell proliferation / toxicity by MTS assay; type: cell-based, human; conditions: 50 and 100 nM, 24 h post transfection
Experimental: Cell proliferation was assessed by MTS (3-(4,5-dimethylthiazol-2-yl)-5-(3-carboxymethoxyphenyl)-2-(4-sulfophenyl)-2H-tetrazolium, inner salt) reagent assay: MG63 cells were seeded at a density of 35 000 cells in 24-well culture plates, and cultured for 24 hours as mentioned above. Cells were transfected with 50 nM or 100 nM concentrations of cpRNA and negative control siRNAs with or without MATra-si, while control wells were left untreated. Each transfection experiment was performed in triplicate. Post-transfection, cells were incubated for 24 hours at 37° C. The viable cells were evaluated by MTS assay, using CellTiter 96®AQueousOne Solution Cell Proliferation Assay (Promega, USA) according to the manufacturer's protocol. The enzymatic reduction in MTS to formazan was quantified by an ELISA plate reader (Thermo Scientific) at 490 nm.
Thus, the role of siRNA topography on immune activation and cellular toxicity was investigated because increased RNA length has been reported to cause toxicity with increased interferon (IFN)-β expression. toxicity studies were performed using the MTS assay with two concentrations of GAPDH siRNA (50 and 100 nM) with different overhang lengths (dT2, dT5, and dT8) in MG63 and HOB cells and compared it with the scrambled siRNA sequence (FIG. 5).

[5] = system: MG63 cells; test: Flow cytometry uptake kinetics and ODN2006 blocking in MG63 cells; type: cell-based, human; conditions: MG63 cells, 50 nM, 37° C.
Experimental: To determine cpRNA cellular uptake kinetics, FACS experiments were repeated as mentioned above using MG63 cells, where Cy3-cpRNA was treated for different time points. Briefly, Cy3-cpRNA (50 nM) was added to cells, followed by incubation for 0.5 h, 1 h, 1.5 h, 2 h, 3 h and 4 h respectively. The cells were subsequently trypsinised and analyzed by FACS as mentioned above.
To perform […] blocking studies, seeded MG63 cells were incubated with 600 nM 3′-FITC labeled ODN2006 for 1 h, followed by addition of 50 nM cpRNA. Cells were incubated for additional 0.5 h, 1 h, 1.5 h, 2 h, 3 h and 4 h respectively, trypsinised and analyzed by FACS analysis as mentioned above.
To verify if the uptake mechanism of cpRNA was analogous to viral RNA and the RNA mimic polyriboinosinic:polyribocytidylic acid or poly(I:C), blocking studies were performed using the Btype single-stranded DNA sequence ODN2006 which share a common uptake receptor. This synthetic phosphorothioate modified oligo, though initially identified as a TLR9 agonist, blocks cellular uptake of viral RNA and poly(I:C) by preferentially competing with the common RNA uptake receptor. Blocking experiment were performed by pre-incubating the cells with FITC labeled ODN2006 for 1 h, followed by the addition of Cy3-labeled cpRNA. The blocking studies and cellular uptake was monitored using FACS analysis at different time points for up to 4 h. As a control experiment, the uptake kinetics was performed in the absence of FITC labeled ODN2006. […] These experiments verified the involvement of an alternate uptake mechanism and indicated the presence of a ubiquitous RNA capture receptor that required ˜1 h of maturation time before the endocytosis process could initiate.

[6] = system: MG63, HOB, HCT116, HEK293 and MC3T3 cells; test: Flow cytometry cellular uptake of Cy3-cpRNA in different cells; type: cell-based, human; mouse; conditions: 50 nM, 24 h at 37° C., carrier-free
Experimental: To determine the amount of cellular uptake of cpRNA by flow cytometry, Cy3 labeled cpRNA (Table 3) was used for transfection experiments using different types of cells (MG63, HOB, HCT116, HEK293 and MC3T3). Cells were seeded at a density of 1×10^5 cells per well and cultured for 24 hours. Thereafter, cells were transfected with 50 nM Cy3-cpRNA, with control wells left untreated. Post-transfection, cells were incubated for further 24 h at 37° C., trypsinised and washed with PBS containing 2 mM EDTA and 0.5% human serum albumin. The cells were then suspended in PBS and subjected to fluorescence analysis on a FACSCanto II (BD Biosciences) BioVis platform, scilife laboratory. The images were analyzed using FlowJo software (version 7.6; TreeStar, Ashland, Oreg.).

Row | Substance | uptake kinetics [1] [min] | Tm ([2]; 7.5 mM phosphate buffer pH 7.0 containing 140 mM KCl, 1 μM strands, 40-95° C.) [°C] | Δ Tm ([2]; Tm relative to canonical siRNA (dT2)) [°C] | drop in Tm ([2]; as compared to canonical siRNA) [°C] | GAPDH gene knockdown [3] [%] | cytotoxicity (MTS assay) [4] | time after which cellular uptake was initiated [5] [h] | time in which uptake finished after initiation [5] [h] | cellular uptake by flow cytometry ([6]; listed as Cy3-labeled cpRNA) | cellular uptake by flow cytometry ([6]; listed as Cy3 labeled cpRNA)
1 | polyriboinosinic:polyribocytidylic acid [poly(I:C)] | ≤ 5 | – | – | – | – | – | – | – | – | –
2 | dT8: GAPDH siRNA, sense SEQ ID NO: 4 with dT8 3′-overhang, antisense SEQ ID NO: 2 with dT2 (sense CCGAGCCACAUCGCUCAGATTTTTTTT; antisense UCUGAGCGAUGUGGCUCGGTT; sense: sugars from the 5' end r19 d8, backbone not given here; antisense: sugars from the 5' end r19 d2, backbone not given here) | – | 79.8 | −1.4 | 1.5 | 50 | do not impose toxicity | – | – | – | –
3 | Cy3 cpRNA: GAPDH cpRNA with Cy3 at 5′-end of sense strand (SEQ ID NO: 12, dT5), antisense SEQ ID NO: 2 (sense CCGAGCCACAUCGCUCAGATTTTT; antisense UCUGAGCGAUGUGGCUCGGTT; sense: sugars from the 5' end r19 d5, 5' {Cy3}, backbone not given here; antisense: sugars from the 5' end r19 d2, backbone not given here) | – | – | – | – | 80 | – | 1 | ≤ 2 | near quantitative cellular uptake | quantitatively taken up by all the cells
